From patent US7612087B2, “Heterocyclic compounds as inhibitors of beta-lactamases” (Novexel, priority 2002, dated 2009)
Read-outs that look alike come from different tables or passages of the source.

Assays:
β-lactamase TEM1 = molecular target: T1, β-lactamase TEM1 (Escherichia coli, UniProt P62593); test: Inhibition of isolated β-lactamase Tem-1 (Nitrocefin hydrolysis); assay type: biochemical, E.coli 250HT21; conditions: 100 μM Nitrocefin, 50 mM sodium phosphate buffer pH7.0, 37° C.
T1 construct: The β-lactamases are isolated from bacterial strains which are resistant to penicillins and cephalosporins; endogenous in cells; host or cells: E. coli 250HT21 (natural producer; French-press lysate, 100,000 g supernatant)
Experimental: (§1) A. Preparation of the β-lactamases Tem-1 and P99
(§2) The β-lactamases are isolated from bacterial strains which are resistant to penicillins and cephalosporins (Tem1 and P99 are produced by E.coli 250HT21 and E.Cloacae 293HT6 respectively).
(§3) The bacteria are cultured at 37° C. in heart-brain culture at 37 g/l (DIFCO). They are harvested at the end of the exponential phase, cooled down and centrifuged. The bacterial pellets are taken up in sodium phosphate buffer 50 mM, pH 7.0 and centrifuged again. The bacteria are taken up in two volumes of the same buffer and lyzed using a French-Press maintained at 4° C. After centrifugation for 1 hour at 100,000 g, at 4° C., the supernatants containing the soluble fraction of the bacterial extracts are recovered and frozen at −80° C.
(§4) The method uses Nitrocefin (OXOID), cephalosporin chromogene as substrate, of which the product hydrolyzed by the B-lactamases is red and absorbs at 485 nm. Beta-lactamase activity is determined kinetically by measurement of the absorbance variation at 485 nm resulting from the hydrolysis of the substrate using a plate spectrophotometer (Spectra Max More Molecular Devices). The experiments are carried out at 37° C. The quantity of enzyme was normalized and the measurements are carried out at initial speed.
(§5) Two measurements were carried out, without preincubation and with preincubation of the enzyme and inhibitor (5 mn), in order to test the irreversibility of the reaction. The products are tested at 6 or 8 concentrations in duplicate. The reaction mixture contains 100 μM of Nitrocefin and 50 mM sodium phosphate buffer pH7.0.
(§6) The hydrolysis speeds are measured with and without inhibitor. The concentration of inhibitor which inhibits by 50% the hydrolysis reaction of Nitrocefin by the enzyme (CI50) is determined. The data is processed using GraFit software (Erathycus Software).

E. coli 250BE1 (SHV4) = test: MIC, micro-dilution in liquid medium, β-lactamine with product at 5 mg/l; assay type: cell-based; conditions: 24 hours at 37° C.; for MIC: Escherichia coli
Experimental: (§7) The operation is carried out as follows, using the so-called micro-dilution in liquid medium method.
(§8) A series of concentrations of the β-lactamine is prepared in the presence of a constant concentration (5 mg/l) of the product to be studied, each is then seeded with various bacterial strains.
(§9) After incubation for 24 hours in a heating chamber at 37° C., the growth inhibition is evaluated by the absence of any bacterial development, which allows the minimal inhibitory concentrations (MIC) for each strain to be determined, expressed in milligrams/l.

[1] = system: E. cloacae 293HT6 (Class C); test: as above; assay type: cell-based; conditions: 24 hours at 37° C.; for MIC: Enterobacter cloacae
Experimental: as §7, §8, §9

E. coli 250HT26 (SHV1) = test: as above; assay type: cell-based; conditions: 24 hours at 37° C.; for MIC: Escherichia coli
Experimental: as §7, §8, §9

E. coli 250HT22 (Tem2) = test: as above; assay type: cell-based; conditions: 24 hours at 37° C.; for MIC: Escherichia coli
Experimental: as §7, §8, §9

E. coli 250HT21 (Tem1) = test: as above; assay type: cell-based; conditions: 24 hours at 37° C.; for MIC: Escherichia coli
Experimental: as §7, §8, §9

E. coli 250SJ1 (Tem7) = test: as above; assay type: cell-based; conditions: 24 hours at 37° C.; for MIC: Escherichia coli
Experimental: as §7, §8, §9

[2] = system: E. coli 250HT23 (Class D); test: as above; assay type: cell-based; conditions: 24 hours at 37° C.; for MIC: Escherichia coli
Experimental: as §7, §8, §9

[3] = system: S. aureus 011GO66 (PeniR); test: as above; assay type: cell-based; conditions: 24 hours at 37° C.; for MIC: Staphylococcus aureus
Experimental: as §7, §8, §9

β-lactamase P99 = molecular target: T2, β-lactamase P99 (Enterobacter cloacae, UniProt P05364); test: biochemical; conditions: 100 μM Nitrocefin, 50 mM sodium phosphate buffer pH7.0, 37° C.; read-out: IC50 nM/P99
T2 construct: The β-lactamases are isolated from bacterial strains which are resistant to penicillins and cephalosporins; endogenous in cells; host or cells: Enterobacter cloacae 293HT6 (natural producer; French-press lysate, 100,000 g supernatant)
Experimental: as §1, §2, §3, §4, §5, §6

E. coli 250CF1 (Tem3) = test: microbe, parasite or virus in culture; assay type: cell-based; conditions: 24 hours at 37° C.; for MIC: Escherichia coli
Experimental: as §7, §8, §9

[4] = system: P. aeruginosa 391HT8 (PSE); test: MIC, micro-dilution in liquid medium, β-lactamine with product at 5 mg/l; assay type: cell-based; conditions: Pseudomonas aeruginosa, 24 hours at 37° C.
Experimental: as §7, §8, §9

[5] = system: P. aeruginosa 391HT7 (PSE); test: as above; assay type: cell-based; conditions: Pseudomonas aeruginosa, 24 hours at 37° C.
Experimental: as §7, §8, §9

Serratia 301HT6 = test: as above; assay type: cell-based; conditions: Trial 10, 301HT6 Serratia, 24 hours at 37° C.
Experimental: as §7, §8, §9

T2 sequence (P05364 21-381): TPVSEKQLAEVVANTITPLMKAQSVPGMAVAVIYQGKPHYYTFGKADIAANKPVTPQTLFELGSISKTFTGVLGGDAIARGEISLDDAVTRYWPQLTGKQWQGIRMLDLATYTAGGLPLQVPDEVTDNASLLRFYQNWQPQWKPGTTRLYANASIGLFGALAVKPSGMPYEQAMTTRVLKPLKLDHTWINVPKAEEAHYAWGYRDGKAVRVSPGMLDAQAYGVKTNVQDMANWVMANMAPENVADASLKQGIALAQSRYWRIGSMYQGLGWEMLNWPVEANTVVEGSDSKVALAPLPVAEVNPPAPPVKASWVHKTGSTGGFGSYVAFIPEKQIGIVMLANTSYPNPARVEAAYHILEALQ
T1 sequence (P62593 24-286 limits assumed): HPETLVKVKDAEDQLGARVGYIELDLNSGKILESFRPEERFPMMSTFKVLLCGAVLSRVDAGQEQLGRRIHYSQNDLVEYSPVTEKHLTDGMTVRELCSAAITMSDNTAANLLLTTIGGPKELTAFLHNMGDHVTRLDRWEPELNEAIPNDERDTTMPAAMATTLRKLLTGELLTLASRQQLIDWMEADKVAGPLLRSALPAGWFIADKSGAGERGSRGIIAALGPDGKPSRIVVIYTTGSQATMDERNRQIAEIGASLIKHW

O=C(OCCc1ccncc1)[C@H]1CC[C@@H]2CN1C(=O)N2OS(=O)(=O)[O-].[Na+] (relative stereo) [Example 49, sodium salt of trans 2-(4-pyridinyl)ethyl 7-oxo-6-(sulphooxy)-1,6-diazabicyclo[3.2.1]octane-2-carboxylate]
IC50 (β-lactamase TEM1): 8.2 nM | MIC of Cefotaxime in combination with the compound (E. coli 250BE1 (SHV4); compound at 5 mg/l, Trial 7, 250BE1 E. coli SHV4): <=0.04 μg/ml | MIC of Piperacillin in combination with the compound (E. coli 250BE1 (SHV4); compound at 5 mg/l, Trial 7, 250BE1 SHV4): 20 µg/mL | MIC of Piperacillin in combination with the compound ([1]; compound at 5 mg/l, Trial 9, 293HT6 Class): 10 µg/mL | MIC of Cefotaxime in combination with the compound (E. coli 250HT26 (SHV1); compound at 5 mg/l, Trial 6, 250HT26 E. coli SHV1): <=0.04 μg/ml | MIC of Piperacillin in combination with the compound (E. coli 250HT26 (SHV1); compound at 5 mg/l, Trial 6, 250HT26 SHV1): 20 µg/mL | MIC of Cefotaxime in combination with the compound (E. coli 250HT22 (Tem2); compound at 5 mg/l, Trial 3, 250HT22 E. coli Tem2): <=0.04 μg/ml | MIC of Piperacillin in combination with the compound (E. coli 250HT22 (Tem2); compound at 5 mg/l, Trial 3, 250HT22 Tem2): 2.5 µg/mL | MIC of Cefotaxime in combination with the compound (E. coli 250HT21 (Tem1); compound at 5 mg/l, Trial 2, 250HT21 E. coli Tem1): <=0.04 μg/ml | MIC of Piperacillin in combination with the compound (E. coli 250HT21 (Tem1); compound at 5 mg/l, Trial 2, 250HT21 Tem1): 1.2 µg/mL | MIC of Cefotaxime in combination with the compound (E. coli 250SJ1 (Tem7); compound at 5 mg/l, Trial 5, 250SJ1 E. coli Tem7): <=0.04 μg/ml | MIC of Piperacillin in combination with the compound (E. coli 250SJ1 (Tem7); compound at 5 mg/l, Trial 5, 250SJ1 Tem7): 5 µg/mL | MIC of Piperacillin in combination with the compound ([2]; compound at 5 mg/l, Trial 8, 250HT23 Class D): 10 µg/mL | MIC of Cefotaxime in combination with the compound ([2]; compound at 5 mg/l, Trial 8, 250HT23 E. coli Class D): <=0.04 μg/ml | MIC of Cefotaxime in combination with the compound ([3]; compound at 5 mg/l, Trial 1, 011GO66 S. aureus PeniR): 2.5 µg/mL | MIC of Piperacillin in combination with the compound ([3]; compound at 5 mg/l, Trial 1, 011GO66 peniR): 1.2 µg/mL | IC50 (β-lactamase P99): 98 nM | MIC of Cefotaxime in combination with the compound (E. coli 250CF1 (Tem3); compound at 5 mg/l, Trial 4, 250CF1 E. coli Tem3): 0.08 µg/mL | MIC of Piperacillin in combination with the compound (E. coli 250CF1 (Tem3); compound at 5 mg/l, Trial 4, 250CF1 Tem3): 1.2 µg/mL

CO/N=C(\C(=O)N[C@@H]1C(=O)N2C(C(=O)O)=C(COC(C)=O)CS[C@H]12)c1csc(N)n1 [Cefotaxime, cefotaxime, reference compound]
MIC (E. coli 250BE1 (SHV4); Trial 7, 250BE1 E. coli SHV4, read-out: MIC of Cefotaxime alone): 40 µg/mL | MIC ([1]; Trial 9, 293HT6 E. cloacae Class C, read-out: MIC of Cefotaxime alone): > 40 µg/mL | MIC ([4]; Trial 12, 391HT8 P. aeruginosa PSE, read-out: MIC of Cefotaxime alone): 40 µg/mL | MIC (E. coli 250HT26 (SHV1); Trial 6, 250HT26 E. coli SHV1, read-out: MIC of Cefotaxime alone): 0.6 µg/mL | MIC ([5]; Trial 11, 391HT7 P. aeruginosa PSE, read-out: MIC of Cefotaxime alone): 40 µg/mL | MIC (E. coli 250HT22 (Tem2); Trial 3, 250HT22 E. coli Tem2, read-out: MIC of Cefotaxime alone): ≤ 0.04 µg/mL | MIC (E. coli 250HT21 (Tem1); Trial 2, 250HT21 E. coli Tem1, read-out: MIC of Cefotaxime alone): ≤ 0.04 µg/mL | MIC (E. coli 250SJ1 (Tem7); Trial 5, 250SJ1 E. coli Tem7, read-out: MIC of Cefotaxime alone): 0.08 µg/mL | MIC ([2]; Trial 8, 250HT23 E. coli Class D, read-out: MIC of Cefotaxime alone): 0.08 µg/mL | MIC (Serratia 301HT6; read-out: MIC of Cefotaxime alone): 0.3 µg/mL | MIC ([3]; Trial 1, 011GO66 S. aureus PeniR, read-out: MIC of Cefotaxime alone): 1.2 µg/mL | MIC (E. coli 250CF1 (Tem3); Trial 4, 250CF1 E. coli Tem3, read-out: MIC of Cefotaxime alone): > 40 µg/mL

CCN1CCN(C(=O)N[C@@H](C(=O)N[C@@H]2C(=O)N3[C@@H]2SC(C)(C)[C@@H]3C(=O)O)c2ccccc2)C(=O)C1=O [Piperacillin, piperacillin, reference compound]
MIC (E. coli 250BE1 (SHV4); Trial 7, 250BE1 SHV4, read-out: MIC of Piperacillin alone): > 40 µg/mL | MIC ([1]; Trial 9, 293HT6 Class, read-out: MIC of Piperacillin alone): > 40 µg/mL | MIC ([4]; Trial 12, 391HT8 PSE, read-out: MIC of Piperacillin alone): > 40 µg/mL | MIC (E. coli 250HT26 (SHV1); Trial 6, 250HT26 SHV1, read-out: MIC of Piperacillin alone): > 40 µg/mL | MIC ([5]; Trial 11, 391HT7 PSE, read-out: MIC of Piperacillin alone): > 40 µg/mL | MIC (E. coli 250HT22 (Tem2); Trial 3, 250HT22 Tem2, read-out: MIC of Piperacillin alone): > 40 µg/mL | MIC (E. coli 250HT21 (Tem1); Trial 2, 250HT21 Tem1, read-out: MIC of Piperacillin alone): > 40 µg/mL | MIC (E. coli 250SJ1 (Tem7); Trial 5, 250SJ1 Tem7, read-out: MIC of Piperacillin alone): > 40 µg/mL | MIC ([2]; Trial 8, 250HT23 Class D, read-out: MIC of Piperacillin alone): > 40 µg/mL | MIC (Serratia 301HT6; read-out: MIC of Piperacillin alone): 5 µg/mL | MIC ([3]; Trial 1, 011GO66 peniR, read-out: MIC of Piperacillin alone): 10 µg/mL | MIC (E. coli 250CF1 (Tem3); Trial 4, 250CF1 Tem3, read-out: MIC of Piperacillin alone): > 40 µg/mL
